Patent US10017538B2, “Bioactive peptides having insecticide activity” (The United States of America, as represented by the …, priority 2016, dated 2018)

These substances were tested on Solenopsis invicta workers (assay: Injection bioassay of peptides in fire ant workers, adult mortality). Details: peptide with Cys-Cys S-S bond in insect saline, injected into fire ant workers.
Format: in vivo
Experimental: Peptides identified herein are injected into the hemocoel of Solenopsis invicta workers using a Nanoliter 2000™ System (World Precision Instruments) with pulled borosilicate needles.
(§1) To determine the negative impact these peptides may have against fire ants, synthesis of potential candidates of small peptides with Cysteine-Cysteine S—S bond at the N- and C-terminal ends of SEQ ID NO: 2 and SEQ ID NO: 14. Synthesis of the peptides is described above. These peptides were dissolved in an insect saline (composition in mM: NaCl 126, KCl 5.4, NaH2PO4 0.17 and KH2PO4 0.22, pH 7.4) or the saline only control were injected into fire ant workers and phenotypic effects monitored.
as §1, with “NO:2-SEQ” for “NO: 2 and SEQ”, “NO:14.” for “NO: 14.”

Row | Substance | adult mortality compared to the saline control
1 | CGSHFC (Synthetically generated peptide) [SEQ ID NO: 14, short synthetically generated peptide] | did not affect adult mortality
2 | CIQQGSHFC (Synthetically generated peptide) [SEQ ID NO: 4, synthetically generated peptide, loop-constrained by flanking cysteines] | significant increase in adult mortality
3 | CLKIGSHFC (Synthetically generated peptide) [SEQ ID NO: 3, synthetically generated peptide, loop-constrained by flanking cysteines] | significant increase in adult mortality
4 | CMARYMSAC (Synthetically generated peptide) [SEQ ID NO: 11, synthetically generated peptide, loop-constrained by flanking cysteines] | significant increase in adult mortality
5 | CQKIGSHFC (Synthetically generated peptide) [SEQ ID NO: 2, synthetically generated peptide, loop-constrained by flanking cysteines] | increase in adult mortality
6 | CRGATPMSC (Synthetically generated peptide) [SEQ ID NO: 12, synthetically generated peptide, loop-constrained by flanking cysteines] | significant increase in adult mortality
